{
  "source": "patent US20050136126A1",
  "about": "“Agent for reduction of scar formation by using wound alkalinization” (CambridgeMED, Inc., priority 2003, published 2005)",
  "key": {"[1]": {"tested_on": "incised wound on the dorsum of adult white rats", "conditions": "for deposited collagen (amount, appearance) / collagen fibers (density, structure) vs normal dermis: Trichrome dyeing", "experimental": "On the dorsum of adult white rats, skin near the limbs which are on the same distance from the median line was incised in about 10 mm long. In a sham control group, 0.1 cc distilled water was injected to the dermis of the incised wound and simply sutured.\nOn 14th and 56th days from the experiments, tissues of ten adult white rats were taken, fixed in 10% neutral buffer formalin for 24 hours, embedded in paraffin throughout the normal tissue treating process.\nWith a tissue sample, which was cut perpendicularly to the middle of the wound, the width of the scar by use of image analysis program (Image-Pro version 3.0, Microsoft) under 40 magnification was measured, and the differences between the groups were compared. The result of the measurement was confirmed by Student t-test.\nOn the dorsum of adult white rats, skin near the limbs which are on the same distance from the median line was incised in about 10 mm long. After incision, the control group was simply sutured."}, "[2]": {"source_text": "Regarding concentrations and amounts of the various reagents, please refer to Tables 1 and 2 below: […]"}, "TGF-β": {"tested_on": "TGF-β", "assay": "Experiment of TGF-β inactivation: histology and width of scar after TGF-β injection into incised wound", "assay_type": "in vivo, bovine", "conditions": "8 weeks; Trichrome dyeing"}, "[3]": {"conditions": "2 weeks, hematoxylin-eosin dyeing, ×40"}},
  "note": "Read-outs that look alike come from different tables or passages of the source.",
  "data": [
    {"compound": "[K+].[OH-]", "note": "[KOH, potassium hydroxide]", "values": [
      {"measurement": "deposited collagen (amount, appearance)", "setting": "[1]; 2 weeks", "result": "meager compared to that of the control group"},
      {"measurement": "width of the scar vs control group (histological observation)", "setting": "[1]; [3]", "result": "thinner than that of the control group"},
      {"measurement": "collagen fibers (density, structure) vs normal dermis", "setting": "[1]; 8 weeks", "result": "not different from that of the normal dermis nearby"},
      {"measurement": "pH value", "setting": "[2]; 0.05 mEq", "result": 8.56},
      {"measurement": "pH value", "setting": "[2]; 0.1 mEq", "result": 9.40},
      {"measurement": "pH value", "setting": "[2]; 0.5 mEq", "result": 9.74},
      {"measurement": "pH value", "setting": "[2]; 1.0 mEq", "result": 10.51}
    ]},
    {"compound": "[Na+].[OH-]", "note": "[NaOH, sodium hydroxide]", "values": [
      {"measurement": "deposited collagen (amount, appearance)", "setting": "[1]; 2 weeks", "result": "meager compared to that of the control group"},
      {"measurement": "width of the scar vs control group (histological observation)", "setting": "[1]; [3]", "result": "thinner than that of the control group"},
      {"measurement": "collagen fibers (density, structure) vs normal dermis", "setting": "[1]; 8 weeks", "result": "not different from that of the normal dermis nearby"},
      {"measurement": "pH value", "setting": "[2]; 0.05 mEq", "result": 8.55},
      {"measurement": "pH value", "setting": "[2]; 0.1 mEq", "result": 9.38},
      {"measurement": "pH value", "setting": "[2]; 0.5 mEq", "result": 9.87},
      {"measurement": "pH value", "setting": "[2]; 1.0 mEq", "result": 10.50}
    ]},
    {"compound": "O=C([O-])O.[Na+]", "note": "[sodium bicarbonate]", "values": [
      {"measurement": "degree of deposition of inflammatory cells vs control group", "setting": "[1]; [3]", "result": "not much difference"},
      {"measurement": "width of the scar vs control group (histological observation)", "setting": "[1]; [3]", "result": "thinner than that of the control group"},
      {"measurement": "scar appearance", "setting": "[1]; 8 weeks, hematoxylin-eosin dyeing, ×40", "result": "thin and unnoticeable scar"},
      {"measurement": "fibroblast cells", "setting": "[1]; 8 weeks, hematoxylin-eosin dyeing, ×400", "result": "Not many of the fibroblast cells were found"},
      {"measurement": "pH value", "setting": "[2]; 0.05 mEq", "result": 8.83},
      {"measurement": "pH value", "setting": "[2]; 0.1 mEq", "result": 9.22},
      {"measurement": "pH value", "setting": "[2]; 0.5 mEq", "result": 9.82},
      {"measurement": "pH value", "setting": "[2]; 1.0 mEq", "result": 10.36}
    ]},
    {"compound": "TGF-β", "values": [
      {"measurement": "collagen fibers (density, structure) vs normal dermis", "setting": "TGF-β", "result": "clearly showed the scar"}
    ]}
  ]
}
